Results published in ChEMBL document CHEMBL1201862, “PubChem BioAssay data set” (2004).
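Protocol summary: plate cells (96-well), add compound at 5 concentrations, incubate 48 h, interpolate endpoints linearly. GI50 is the concentration that inhibits growth by half.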 Calls of active or inactive are those of the source. Cut-off read from the data, not from the text of the source: active = GI50 up to about 1.1 µM and inactive = higher. Where a SMILES comes first, the peptide text is derived from it. [ ]: non-standard residue; d: D form. pGlu = O=C1CC[CH](C(=O)O)N1

Key:
Assay in all cases: NCI-60 cell line screen, 48 h
NCI-H522 = tested on: NCI-H522
OVCAR-3 = tested on: OVCAR-3
COLO 205 = tested on: COLO 205
SN12C = tested on: SN12C
UO-31 = tested on: UO-31
UACC-257 = tested on: UACC-257
OVCAR-5 = tested on: OVCAR-5
NCI-H23 = tested on: NCI-H23
RXF 393 = tested on: RXF 393
BT-549 = tested on: BT-549
M14 = tested on: M14
NCI/ADR-RES = tested on: NCI/ADR-RES
SW-620 = tested on: SW-620
KM12 = tested on: KM12
CCRF-CEM = tested on: CCRF-CEM
CAKI-1 = tested on: CAKI-1
MOLT-4 = tested on: MOLT-4
SK-MEL-5 = tested on: SK-MEL-5
SNB-75 = tested on: SNB-75

Row | Compound | GI50 (NCI-H522) | GI50 (OVCAR-3) | GI50 (COLO 205) | GI50 (SN12C) | GI50 (UO-31) | GI50 (UACC-257) | GI50 (OVCAR-5) | GI50 (NCI-H23) | GI50 (RXF 393) | GI50 (BT-549) | GI50 (M14) | GI50 (NCI/ADR-RES) | GI50 (SW-620) | GI50 (KM12) | GI50 (CCRF-CEM) | GI50 (CAKI-1) | GI50 (MOLT-4) | GI50 (SK-MEL-5) | GI50 (SNB-75)
1 | COC(=O)C1CCC(=O)N1C(c1ccccc1)c1cc(OC)c(OC)c(OC)c1 (configuration not stated) | 40.2 µM (inactive) | 51.2 µM (inactive) | 45.5 µM (inactive) | 80.5 µM (inactive) | 55.1 µM (inactive) | > 100 µM (inactive) | > 100 µM (inactive) | 62.4 µM (inactive) | > 100 µM (inactive) | 92.7 µM (inactive) | 43 µM (inactive) | 76 µM (inactive) | 46.7 µM (inactive) | 45.8 µM (inactive) | 53.3 µM (inactive) | 22.3 µM (inactive) | 31.8 µM (inactive) |  | 
2 | COc1cc(/C=C/C(=O)c2c([O-])on[n+]2-c2ccccc2)ccc1O | 1.73 µM (inactive) | 2.29 µM (inactive) | 12.1 µM (inactive) | 2.03 µM (inactive) | 3.25 µM (inactive) | 3.87 µM (inactive) | 11 µM (inactive) | 2.69 µM (inactive) | 2 µM (inactive) | 2.99 µM (inactive) | 3.43 µM (inactive) | 2.48 µM (inactive) | 2.18 µM (inactive) | 2.31 µM (inactive) | 1.37 µM (inactive) | 3 µM (inactive) | 2.2 µM (inactive) | 3.78 µM (inactive) | 2.5 µM (inactive)
3 | CC(NC(=O)C1CCC(=O)N1)C(=O)N1CCCC1C(N)=O (stereo not drawn) ([pGlu]-Ala-Pro-NH2; configuration not given here) | > 100 µM (inactive) | > 100 µM (inactive) | > 100 µM (inactive) | > 100 µM (inactive) | > 100 µM (inactive) |  | > 100 µM (inactive) | > 100 µM (inactive) | > 100 µM (inactive) | > 100 µM (inactive) | > 100 µM (inactive) | > 100 µM (inactive) | > 100 µM (inactive) | > 100 µM (inactive) | > 100 µM (inactive) | > 100 µM (inactive) | > 100 µM (inactive) | > 100 µM (inactive) | > 100 µM (inactive)
4 | c1ccc2nn(C3CCCCO3)nc2c1 (configuration not stated) | > 100 µM (inactive) | > 100 µM (inactive) | > 100 µM (inactive) | > 100 µM (inactive) | > 100 µM (inactive) | > 100 µM (inactive) | > 100 µM (inactive) | > 100 µM (inactive) | > 100 µM (inactive) | > 100 µM (inactive) | > 100 µM (inactive) | > 100 µM (inactive) |  | > 100 µM (inactive) | > 100 µM (inactive) | > 100 µM (inactive) | > 100 µM (inactive) | > 100 µM (inactive) | > 100 µM (inactive)
5 | CN(C)C(=O)C1CCN(Cc2c[nH]c3ccccc23)CC1 | > 100 µM (inactive) | > 100 µM (inactive) | > 100 µM (inactive) | > 100 µM (inactive) | > 100 µM (inactive) | > 100 µM (inactive) | > 100 µM (inactive) | > 100 µM (inactive) | > 100 µM (inactive) | > 100 µM (inactive) | > 100 µM (inactive) | > 100 µM (inactive) | 17 µM (inactive) | > 100 µM (inactive) |  | > 100 µM (inactive) | > 100 µM (inactive) | > 100 µM (inactive) | > 100 µM (inactive)
6 | CCOC(=O)Cc1nc2sc(S(N)(=O)=O)nn2c1Br | 19.1 µM (inactive) | 36.6 µM (inactive) | 39.4 µM (inactive) | 23.5 µM (inactive) | 15.8 µM (inactive) | 29.9 µM (inactive) | 22.1 µM (inactive) | 27.6 µM (inactive) | 21.7 µM (inactive) | 32.1 µM (inactive) | 15.7 µM (inactive) | 47.4 µM (inactive) | 23.6 µM (inactive) | 32.3 µM (inactive) | < 0.01 µM (active) | 17.2 µM (inactive) |  | 16.1 µM (inactive) | 32.1 µM (inactive)
7 | N=C(N)N/N=C/c1ccc(O)c(C(=O)O)c1 | > 100 µM (inactive) | > 100 µM (inactive) | > 100 µM (inactive) |  | > 100 µM (inactive) | > 100 µM (inactive) | > 100 µM (inactive) | > 100 µM (inactive) | > 100 µM (inactive) | > 100 µM (inactive) | > 100 µM (inactive) | > 100 µM (inactive) | > 100 µM (inactive) | > 100 µM (inactive) | > 100 µM (inactive) | > 100 µM (inactive) | > 100 µM (inactive) | > 100 µM (inactive) | 3.22 µM (inactive)
8 | C=C1C(=O)OC2/C=C(/C)C(OC(C)=O)CC(O)/C(C)=C\C(OC(=O)/C(C)=C\C)C12 (configuration not stated) | 10.6 µM (inactive) | 46.6 µM (inactive) | 34.4 µM (inactive) | 50.6 µM (inactive) |  | > 100 µM (inactive) | > 100 µM (inactive) | > 100 µM (inactive) | 51.9 µM (inactive) | 53.5 µM (inactive) | 53.6 µM (inactive) | 58.9 µM (inactive) | 25.8 µM (inactive) | > 100 µM (inactive) | 28.6 µM (inactive) | 30.5 µM (inactive) | 29.6 µM (inactive) | > 100 µM (inactive) | > 100 µM (inactive)
9 | Cc1cc(N2CCOCC2)nc2ccc(Cc3ccc4nc(N5CCOCC5)cc(C)c4c3)cc12 | 26.5 µM (inactive) | 33.3 µM (inactive) | 13.3 µM (inactive) | 55.8 µM (inactive) | 38.2 µM (inactive) | 25.6 µM (inactive) | > 100 µM (inactive) | 54 µM (inactive) | 25.9 µM (inactive) | 60.7 µM (inactive) | 41.1 µM (inactive) | 41.8 µM (inactive) | 35.9 µM (inactive) | > 100 µM (inactive) |  | > 100 µM (inactive) | 28.8 µM (inactive) | 16.2 µM (inactive) | 35.2 µM (inactive)
10 | CN(C)c1ccc(/C=N/NC(=O)c2cnc3ccccc3c2)cc1 | 18.1 µM (inactive) | > 100 µM (inactive) | > 100 µM (inactive) | > 100 µM (inactive) | > 100 µM (inactive) | > 100 µM (inactive) | > 100 µM (inactive) | > 100 µM (inactive) | 19.9 µM (inactive) | 94 µM (inactive) | > 100 µM (inactive) | > 100 µM (inactive) | > 100 µM (inactive) | 38.5 µM (inactive) |  | > 100 µM (inactive) |  | > 100 µM (inactive) | 21.9 µM (inactive)
11 | CC1OC2(CC(OCc3ccccc3)C1OCc1ccccc1)OCCO2 (configuration not stated) | 31.2 µM (inactive) | > 100 µM (inactive) | 62.1 µM (inactive) | 21.4 µM (inactive) | 42.3 µM (inactive) | 34.8 µM (inactive) | 51.3 µM (inactive) | 35 µM (inactive) | 16.4 µM (inactive) | 59 µM (inactive) | 45.7 µM (inactive) | 39.1 µM (inactive) | 70 µM (inactive) | 63.7 µM (inactive) | 34.4 µM (inactive) | 63.1 µM (inactive) | 27.3 µM (inactive) | 33 µM (inactive) | 
12 | CCOC(=O)NNC(=O)C1CSC(c2ccccc2)N1C(C)=O (configuration not stated) | > 100 µM (inactive) | > 100 µM (inactive) | > 100 µM (inactive) | > 100 µM (inactive) | > 100 µM (inactive) | > 100 µM (inactive) | > 100 µM (inactive) | > 100 µM (inactive) |  | > 100 µM (inactive) | > 100 µM (inactive) | > 100 µM (inactive) | > 100 µM (inactive) | > 100 µM (inactive) | > 100 µM (inactive) | > 100 µM (inactive) | > 100 µM (inactive) | > 100 µM (inactive) | > 100 µM (inactive)
13 | Brc1ccc(-c2nc(-c3ccc(Br)cc3)n(-c3ccccc3)n2)cc1 | 39 µM (inactive) | > 100 µM (inactive) | 27.2 µM (inactive) | > 100 µM (inactive) | > 100 µM (inactive) | 81.1 µM (inactive) | > 100 µM (inactive) | > 100 µM (inactive) |  | > 100 µM (inactive) | > 100 µM (inactive) | > 100 µM (inactive) | > 100 µM (inactive) | 49.5 µM (inactive) | 20.6 µM (inactive) | > 100 µM (inactive) | 53.7 µM (inactive) | > 100 µM (inactive) | 54.3 µM (inactive)
14 | c1cc2c(cc1C(N1CCNCC1)N1CCNCC1)OCO2 | > 100 µM (inactive) | > 100 µM (inactive) | > 100 µM (inactive) | > 100 µM (inactive) | > 100 µM (inactive) | > 100 µM (inactive) | > 100 µM (inactive) | > 100 µM (inactive) | > 100 µM (inactive) | > 100 µM (inactive) | > 100 µM (inactive) | > 100 µM (inactive) | > 100 µM (inactive) | > 100 µM (inactive) |  | > 100 µM (inactive) |  | > 100 µM (inactive) | > 100 µM (inactive)
15 | COc1ccc(OC)c([N+](=O)[O-])c1-c1nc2sc(C)cn2c1/C=N/N=C(N)N | 20 µM (inactive) | 28.9 µM (inactive) |  | 23.4 µM (inactive) | > 100 µM (inactive) | 18 µM (inactive) | 51.4 µM (inactive) | 22.8 µM (inactive) | 28.2 µM (inactive) | 15.2 µM (inactive) | 32.8 µM (inactive) | > 100 µM (inactive) | 29.9 µM (inactive) | 20.5 µM (inactive) | 42.2 µM (inactive) | 28.7 µM (inactive) | < 0.01 µM (active) | 18.7 µM (inactive) | 
